The NIST ThermoML archive (doi:10.1016/j.jct.2018.01.005)

Experiments:
[1] = excess molar enthalpy (molar enthalpy of mixing); xn = mol fraction of the nth substance listed; details: 100 kPa, Liquid, Flow calorimetry
[2] = 101.33 kPa, Liquid, Vibrating tube method

CC1(C)C(=O)[C@]2(C)CC[C@H]1C2 [(-)-fenchone] + CCCCCO
excess molar enthalpy [kcal/mol], [1]
Details | 283.15 K | 298.15 K | 313.15 K | 328.15 K
x1 = 0.049 | 0.0507 | 0.0559 | 0.0588 | 0.0607
x1 = 0.099 | 0.0966 | 0.108 | 0.115 | 0.118
x1 = 0.199 | 0.179 | 0.197 | 0.207 | 0.212
x1 = 0.3 | 0.231 | 0.259 | 0.276 | 0.283
x1 = 0.397 | 0.264 | 0.299 | 0.321 | 0.331
x1 = 0.498 | 0.276 | 0.314 | 0.337 | 0.349
x1 = 0.596 | 0.269 | 0.306 | 0.329 | 0.341
x1 = 0.702 | 0.241 | 0.274 | 0.294 | 0.304
x1 = 0.803 | 0.192 | 0.216 | 0.229 | 0.236
x1 = 0.898 | 0.109 | 0.125 | 0.135 | 0.139
x1 = 0.949 | 0.0574 | 0.0645 | 0.0693 | 0.0719

CCCCO [butan-1-ol]
[2]
Details | mass density [kg/m3]
283.15 K | 817.11
298.15 K | 805.72
313.15 K | 794.4
328.15 K | 782.11

CC1(C)C(=O)[C@]2(C)CC[C@H]1C2 [(-)-fenchone] + CCCCO
excess molar enthalpy [kcal/mol], [1]
Details | 283.15 K | 298.15 K | 313.15 K | 328.15 K
x1 = 0.05 | 0.0509 | 0.0569 | 0.0609 | 0.0636
x1 = 0.1 | 0.0966 | 0.109 | 0.117 | 0.122
x1 = 0.203 | 0.175 | 0.194 | 0.208 | 0.217
x1 = 0.3 | 0.222 | 0.25 | 0.269 | 0.282
x1 = 0.396 | 0.255 | 0.289 | 0.313 | 0.328
x1 = 0.499 | 0.267 | 0.305 | 0.331 | 0.348
x1 = 0.603 | 0.261 | 0.299 | 0.325 | 0.341
x1 = 0.692 | 0.237 | 0.27 | 0.292 | 0.305
x1 = 0.805 | 0.184 | 0.208 | 0.222 | 0.23
x1 = 0.898 | 0.105 | 0.122 | 0.132 | 0.137
x1 = 0.95 | 0.0538 | 0.0617 | 0.0664 | 0.0686

CCCCCO [pentan-1-ol]
[2]
Details | mass density [kg/m3]
283.15 K | 821.79
298.15 K | 810.9
313.15 K | 799.8
328.15 K | 788.82
